The target of the experiment is T1, hACMSD (ACMSD1) (Homo sapiens, UniProt Q8TDX5).
T1 construct: made in house; host or cells: Pichia pastoris
The experiment can be described thus: Determination of ACMSD1 inhibition, spectrophotometrical in vitro assay (conversion of 3OH-anthranilic acid into ACMS). It counts as biochemical. Conditions: HAA concentration of 10 μM; recombinant ACMSD1 from Pichia pastoris; 25° C.; absorbance at 360 nm. Here is the method:
The activity of compounds as inhibitors of ACMSD1 is determined in a spectrophotometrical in vitro assay. The pre-assay mixture is incubated and a compound of Formula (I) or (II), or a pharmaceutically acceptable salt thereof, and ACMSD1 solution is then added. The effect of ACMS concentration on the enzyme activity is investigated by varying 3-hydroxyanthranilic acid (30H-HA) concentration in the pre-assay mixture. Kinetic parameters are calculated from the initial velocity data using a Lineweaver-Burk plot.
The pre-assay mixture consisting of 3-hydroxyanthranilic acid (30H-HA), 3-hydroxyanthranilic acid, 3,4-diOxygenase (HAO), and a dialyzed crude extract of E. coli BL21 (DE3) cells expressing the recombinant enzyme, was incubated at 25° C. with monitoring of the increase in absorbance at 360 nm due to the formation of ACMS from 30H-HA. After the reaction was completed within ˜2 mins, an aliquot of ACMSD1 solution (prepared and purified from Pichia pastoris overexpressing the recombinant enzyme) was added, and the decrease in absorbance at 360 nm was followed at 15 second intervals. The effect of ACMS concentration on the enzyme activity was investigated by varying 30H-HA concentration from 2 to 20 μM. Kinetic parameters were calculated from the initial velocity data by using the Lineweaver-Burk plot.
The rate of the decrease in absorbance caused by ACMSD1 was calculated by subtracting that of the control reaction mixture without ACMSD from that described above. One unit of ACMSD activity was indicated as the amount of enzyme that converts 1 mmol of ACMS per minute at 25° C.
The enzymatic activity was determined at a HAA concentration of 10 μM in the presence of the compounds in Table 1 below. […] In Table 1, A is <0.1 μM; B is 0.1 to 1 μM; C is 1 to 10 μM; and D is >10 μM.

These results are taken from patent US12186317B2, “Inhibitors of alpha-amino-beta-carboxymuconic acid semialdehyde decarboxylase” (TES Pharma S.r.l., priority 2018, dated 2025).

T1 sequence (Q8TDX5 whole entry): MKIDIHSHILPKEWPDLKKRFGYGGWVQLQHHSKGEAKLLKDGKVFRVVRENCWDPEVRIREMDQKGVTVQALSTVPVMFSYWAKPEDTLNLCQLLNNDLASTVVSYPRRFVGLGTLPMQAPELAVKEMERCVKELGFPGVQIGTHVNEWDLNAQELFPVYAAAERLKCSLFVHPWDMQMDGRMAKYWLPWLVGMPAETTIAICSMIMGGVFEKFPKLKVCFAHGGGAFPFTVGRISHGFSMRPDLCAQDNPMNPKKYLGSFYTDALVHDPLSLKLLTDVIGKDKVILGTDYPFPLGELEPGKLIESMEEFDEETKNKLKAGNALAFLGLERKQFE

As for `N#Cc1c(-c2cccs2)nc(SCc2cccc(CCO)c2)[nH]c1=O` [I-12, 2-[3-(2-Hydroxy-ethyl)-benzylsulfanyl]-6-oxo-4-thiophen-2-yl-1,6-dihydropyrimidine-5-carbonitrile], the 50% inhibitory concentration (IC50) fell in the range of 1000 to 10000 nM. For `N#Cc1c(-c2cccs2)nc(SCc2cccc(-c3cc(F)c(O)c(F)c3)c2)[nH]c1=O` [I-3, 2-({[3-(3,5-difluoro-4-hydroxyphenyl)phenyl]methyl}sulfanyl)-6-oxo-4-(thiophen-2-yl)-1,6-dihydropyrimidine-5-carbonitrile] the value was below 100 nM.

For `N#Cc1c(Cc2ccccc2)nc(SCc2cccc(C(=O)O)c2)[nH]c1=O` [I-35, 3-(4-Benzyl-5-cyano-6-oxo-1,6-dihydro-pyrimidin-2-ylsulfanylmethyl)-benzoic acid], the IC50 lay in the range of 100 to 1000 nM. The figure for `N#Cc1c(-c2cccs2)nc(SCC(=O)O)[nH]c1=O` [I-24, (5-Cyano-6-oxo-4-thiophen-2-yl-1,6-dihydro-pyrimidin-2-ylsulfanyl)-acetic acid] is 1000 to 10000 nM; for `N#Cc1c(-c2ccccc2)cc(=O)[nH]c1SCc1cccc(CC(=O)O)c1` [I-19, [3-(3-Cyano-6-oxo-4-phenyl-1,6-dihydro-pyridin-2-ylsulfanylmethyl)-phenyl]-acetic acid] it is below 100 nM; for `N#Cc1c(Cc2ccccc2)nc(SCc2cccc(-c3nnn[nH]3)c2)[nH]c1=O` [I-34, 4-Benzyl-6-oxo-2-[3-(1H-tetrazol-5-yl)-benzylsulfanyl]-1,6-dihydro-pyrimidine-5 carbonitrile] it is below 100 nM.

Consider `N#Cc1c(-c2cccs2)nc(N[C@H]2CC[C@H](C(=O)O)CC2)[nH]c1=O` [I-46], for which the IC50 is above 10000 nM.

Regarding `CNc1nc(SCc2cccc(C(=O)O)c2)nc(-c2cccs2)c1C#N` [I-10, 3-(5-Cyano-4-methylamino-6-thiophen-2-yl-pyrimidin-2-ylsulfanylmethyl)-benzoic acid], the IC50 is 1000 to 10000 nM. Regarding `N#Cc1c(C(F)(F)F)cc(=O)[nH]c1SCc1cccc(CC(=O)O)c1` [I-36, [3-(3-cyano-6-oxo-4-trifluoromethyl-1,6-dihydro-pyridin-2-ylsulfanylmethyl)-phenyl]-acetic acid], the IC50 is 100 to 1000 nM. The figure for `CCOC(=O)Cc1cccc(CSc2nc(-c3cccs3)c(C#N)c(=O)[nH]2)c1` [I-1, [3-(5-Cyano-6-oxo-4-thiophen-2-yl-1,6-dihydro-pyrimidin-2-ylsulfanylmethyl)-phenyl]-acetic acid ethyl ester] is 1000 to 10000 nM.

On to `N#Cc1c(-c2cccs2)cc(=O)[nH]c1SCc1cccc(CC(=O)O)c1` [I-20, [3-(3-Cyano-6-oxo-4-thiophen-2-yl-1,6-dihydro-pyridin-2-ylsulfanylmethyl)-phenyl]-acetic acid], for which the concentration for half-maximal inhibition (IC50) is below 100 nM. Regarding `N#Cc1c(-c2cccs2)nc(SCc2cccc(S(N)(=O)=O)c2)[nH]c1=O` [I-18, 3-(5-Cyano-6-oxo-4-thiophen-2-yl-1,6-dihydro-pyrimidin-2-ylsulfanylmethyl)-benzenesulfonamide], the IC50 is 100 to 1000 nM. Take `COc1nc(SCc2cccc(CC(=O)O)c2)nc(-c2cccs2)c1C#N` [I-4, [3-(5-Cyano-4-methoxy-6-thiophen-2-yl-pyrimidin-2-ylsulfanylmethyl)-phenyl]-acetic acid]: the IC50 was 1000 to 10000 nM. For `CCOC(=O)Cc1cccc(CSc2nc(=O)c(C#N)c(-c3cccs3)n2C)c1` [I-17, [3-(5-Cyano-1-methyl-4-oxo-6-thiophen-2-yl-1,4-dihydro-pyrimidin-2-ylsulfanylmethyl)-phenyl]-acetic acid ethyl ester], the IC50 is above 10000 nM. For `N#Cc1c(Cc2ccccc2)nc(SCc2cc(F)c(O)c(F)c2)[nH]c1=O` [I-41, 4-Benzyl-2-(3,5-difluoro-4-hydroxy-benzylsulfanyl)-6-oxo-1,6-dihydro-pyrimidine-5-carbonitrile] the value was 1000 to 10000 nM; for `N#Cc1c(-c2cccs2)nc(SCc2nnn[nH]2)[nH]c1=O` [I-25, 6-Oxo-2-(1H-tetrazol-5-ylmethylsulfanyl)-4-thiophen-2-yl-1,6-dihydro-pyrimidine-5-carbonitrile], below 100 nM.

As for `CNc1nc(SCc2cccc(CC(=O)O)c2)nc(-c2cccs2)c1C#N` [I-9, [3-(5-Cyano-4-methylamino-6-thiophen-2-yl-pyrimidin-2-ylsulfanylmethyl)-phenyl]-acetic acid], the IC50 is 100 to 1000 nM. For `O=C(O)c1cccc(CSc2nc(C(F)(F)F)cc(=O)[nH]2)c1` [I-31, 3-(6-Oxo-4-trifluoromethyl-1,6-dihydro-pyrimidin-2-ylsulfanylmethyl)-benzoic acid] the value was 1000 to 10000 nM; for `N#Cc1c(SCc2cccc(CC(=O)O)c2)[nH]c(=O)c(C#N)c1-c1cccs1` [I-21, [3-(3,5-Dicyano-6-oxo-4-thiophen-2-yl-1,6-dihydro-pyridin-2-ylsulfanylmethyl)-phenyl]-acetic acid], below 100 nM.

Take `N#Cc1c(Cc2ccccc2)nc(SCC(=O)O)[nH]c1=O` [I-30, (4-Benzyl-5-cyano-6-oxo-1,6-dihydro-pyrimidin-2-ylsulfanyl)-acetic acid]: the IC50 is 100 to 1000 nM. For `N#Cc1c(-c2cccs2)nc(NCc2ccc(-c3nnn[nH]3)cc2)[nH]c1=O` [I-51], the IC50 lay within 100 to 1000 nM. Take `N#Cc1c(-c2cccs2)nc(NCc2cccc(C(=O)O)c2)[nH]c1=O` [I-48]: the IC50 was 1000 to 10000 nM. `N#Cc1c(-c2cccs2)nc(SCc2cc(F)c(O)c(F)c2)[nH]c1=O` [I-39, 2-(3,5-Difluoro-4-hydroxy-benzylsulfanyl)-6-oxo-4-thiophen-2-yl-1,6-dihydro-pyrimidine-5-carbonitrile]: the IC50 was in the range of 1000 to 10000 nM. With `O=C(O)Cc1cccc(CSc2nc(C(F)(F)F)cc(=O)[nH]2)c1` [I-28, [3-(6-Oxo-4-trifluoromethyl-1,6-dihydro-pyrimidin-2-ylsulfanylmethyl)-phenyl]-acetic acid], the IC50 is 100 to 1000 nM. The figure for `Cn1nnc(-c2cccc(CSc3nc(-c4cccs4)c(C#N)c(=O)[nH]3)c2)n1` [I-14, 2-[3-(2-Methyl-2H-tetrazol-5-yl)-benzylsulfanyl]-6-oxo-4-thiophen-2-yl-1,6-dihydro-pyrimidine-5-carbonitrile] is 1000 to 10000 nM.

In the case of `N#Cc1c(-c2cccs2)nc(SCc2cccc(C(N)=O)c2)[nH]c1=O` [I-2, 3-(5-Cyano-6-oxo-4-thiophen-2-yl-1,6-dihydro-pyrimidin-2-ylsulfanylmethyl)-benzamide], the IC50 fell in the range of 100 to 1000 nM. The figure for `N#Cc1c(-c2cccs2)nc(NCc2cccc(CC(=O)O)c2)[nH]c1=O` [I-50] is 1000 to 10000 nM; for `N#Cc1c(SCc2cccc(-c3nnn[nH]3)c2)[nH]c(=O)c(C#N)c1-c1cccs1` [I-22, 2-Oxo-6-[3-(1H-tetrazol-5-yl)-benzylsulfanyl]-4-thiophen-2-yl-1,2-dihydro-pyridine-3,5-dicarbonitrile] it is below 100 nM; for `N#Cc1c(Cc2ccccc2)nc(SCc2cccc(CC(=O)O)c2)[nH]c1=O` [I-33, [3-(4-Benzyl-5-cyano-6-oxo-1,6-dihydro-pyrimidin-2-ylsulfanylmethyl)-phenyl]-acetic acid] it is below 100 nM. Take `O=C(O)CSc1nc(C(F)(F)F)cc(=O)[nH]1` [I-27, (6-Oxo-4-trifluoromethyl-1,6-dihydro-pyrimidin-2-ylsulfanyl)-acetic acid]: the IC50 was in the range of 100 to 1000 nM.
